Data reported in patent US20110207784A1, “OXADIAZOLE-2-OXIDES AS ANTISCHISTOSOMAL AGENTS” (THE UNITED STATES OF AMERICA, AS REPRESENTED BY THE …, priority 2008, published 2011).

The compounds below were run against Recombinant thioredoxin glutathione reductase (TGR) (Schistosoma mansoni, UniProt Q962Y6) (assay: biochemical). Conditions: not given.
Chain of Recombinant thioredoxin glutathione reductase (TGR) (Q962Y6 1-598): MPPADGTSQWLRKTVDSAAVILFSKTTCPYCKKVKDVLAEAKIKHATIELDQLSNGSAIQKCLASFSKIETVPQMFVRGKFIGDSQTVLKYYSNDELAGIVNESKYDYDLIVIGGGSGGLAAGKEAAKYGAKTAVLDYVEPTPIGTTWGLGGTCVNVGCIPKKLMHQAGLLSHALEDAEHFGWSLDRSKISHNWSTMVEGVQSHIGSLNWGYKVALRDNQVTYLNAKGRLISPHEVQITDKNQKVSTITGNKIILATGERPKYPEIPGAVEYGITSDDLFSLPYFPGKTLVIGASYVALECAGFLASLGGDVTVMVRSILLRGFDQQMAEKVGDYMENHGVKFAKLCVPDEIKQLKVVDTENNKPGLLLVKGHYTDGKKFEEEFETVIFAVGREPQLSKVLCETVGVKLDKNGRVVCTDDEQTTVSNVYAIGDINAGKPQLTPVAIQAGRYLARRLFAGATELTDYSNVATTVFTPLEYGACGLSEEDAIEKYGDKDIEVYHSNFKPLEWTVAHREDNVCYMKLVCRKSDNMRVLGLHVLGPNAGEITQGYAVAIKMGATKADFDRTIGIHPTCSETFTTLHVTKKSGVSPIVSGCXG
Assay type: biochemical, S. mansoni
In the case of `N#Cc1c(-c2ccc([N+](=O)[O-])cc2)no[n+]1[O-]` [Compound 25, 3-cyano-4-(4-nitrophenyl)-1,2,5-oxadiazole-2-oxide], the IC50 is reported as 2.2 µM.
For `Cc1c(-c2ccccc2)no[n+]1[O-]` [Compound 50], the “TGR inhibition, potency in words” value was “less potent than compounds 52, 51, and 56”.

Same assay, conditions: read-out: TGR IC50
In the case of `N#Cc1c(-c2cccc(-c3no[n+]([O-])c3C#N)c2)no[n+]1[O-]` [Compound 43, 4,4′-(1,3-phenylene)bis(3-cyano-1,2,5-oxadiazole-2-oxide)], the IC50 is reported as 3.5 µM.
Compound `N#Cc1c(-c2ccccc2)no[n+]1[O-]` [Compound 49, reference compound] has an IC50 of 6.3 µM.
Compound `N#Cc1c(-c2cccc(Br)c2)no[n+]1[O-]` [Compound 31, 4-(3-bromophenyl)-3-cyano-1,2,5-oxadiazole-2-oxide] has an IC50 of 2.8 µM.
`N#Cc1c(-c2ccc(Cl)cc2)no[n+]1[O-]` [Compound 22, 4-(4-chlorophenyl)-3-cyano-1,2,5-oxadiazole-2-oxide] gave an IC50 of 4 µM.
`O=Cc1c(-c2ccccc2)no[n+]1[O-]` [Compound 52] gave an IC50 of 0.11 µM.
`N#Cc1c(-c2cccc(C(F)(F)F)c2)no[n+]1[O-]` [Compound 32, 3-cyano-4-(3-(trifluoromethyl)phenyl)-1,2,5-oxadiazole-2-oxide] showed an IC50 of 2.5 µM.
In the case of `N#Cc1c(-c2ccc(Br)cc2)no[n+]1[O-]` [Compound 23, 4-(4-bromophenyl)-3-cyano-1,2,5-oxadiazole-2-oxide], the IC50 is reported as 3.5 µM.
`COc1ccccc1-c1no[n+]([O-])c1C#N` [Compound 34, 3-cyano-4-(2-methoxyphenyl)-1,2,5-oxadiazole-2-oxide] gave an IC50 of 7.9 µM.
For `N#Cc1c(-c2ccc(O)cc2)no[n+]1[O-]` [Compound 48, 3-cyano-4-(4-hydroxyphenyl)-1,2,5-oxadiazole-2-oxide], the IC50 was 17.9 µM.
`N#Cc1c(-c2cccc([N+](=O)[O-])c2)no[n+]1[O-]` [Compound 55, 3-cyano-4-(3-nitrophenyl)-1,2,5-oxadiazole-2-oxide] gave an IC50 of 2.2 µM.
`COc1ccc(-c2no[n+]([O-])c2C#N)cc1` [Compound 26, 3-cyano-4-(4-methoxyphenyl)-1,2,5-oxadiazole-2-oxide] gave an IC50 of 10 µM.
Work on `Cc1ccc(-c2no[n+]([O-])c2C#N)cc1` [Compound 27, 3-cyano-4-p-tolyl-1,2,5-oxadiazole-2-oxide] yielded an IC50 of 11.2 µM.
`[O-][n+]1onc(-c2ccccc2)c1CO` [Compound 51] showed an IC50 of 11.2 µM.
In the case of `N#Cc1c(-c2cccc(Cl)c2)no[n+]1[O-]` [Compound 30, 4-(3-chlorophenyl)-3-cyano-1,2,5-oxadiazole-2-oxide], the IC50 is reported as 3.5 µM.
With `N#Cc1c(-c2cccc(O)c2)no[n+]1[O-]` [Compound 46, 3-cyano-4-(3-hydroxyphenyl)-1,2,5-oxadiazole-2-oxide] the IC50 was 7.1 µM.
With `COc1cc(-c2no[n+]([O-])c2C#N)cc(OC)c1OC` [Compound 38, 3-cyano-4-(3,4,5-trimethoxyphenyl)-1,2,5-oxadiazole-2-oxide] the IC50 was 8.9 µM.
Compound `N#Cc1c(-c2ccc(F)c(Br)c2)no[n+]1[O-]` [Compound 35, 4-(3-bromo-4-fluorophenyl)-3-cyano-1,2,5-oxadiazole-2-oxide] has an IC50 of 2.8 µM.
`N#Cc1c(-c2ccc(-c3ccccc3)cc2)no[n+]1[O-]` [Compound 28, 4-(biphenyl-4-yl)-3-cyano-1,2,5-oxadiazole-2-oxide] showed an IC50 of 15.8 µM.
Compound `N#Cc1c(-c2ccc(C(F)(F)F)cc2)no[n+]1[O-]` [Compound 24, 3-cyano-4-(4-(trifluoromethyl)phenyl)-1,2,5-oxadiazole-2-oxide] has an IC50 of 7.1 µM.
`N#Cc1c(-c2ccc(F)cc2)no[n+]1[O-]` [Compound 21, 3-cyano-4-(4-fluorophenyl)-1,2,5-oxadiazole-2-oxide] was tested, and the IC50 was 7.9 µM.
For `COc1cccc(-c2no[n+]([O-])c2C#N)c1` [Compound 33, 3-cyano-4-(3-methoxyphenyl)-1,2,5-oxadiazole-2-oxide], the IC50 was 8.9 µM.
Compound `N#Cc1c(-c2cc(F)cc(-c3no[n+]([O-])c3C#N)c2)no[n+]1[O-]` [Compound 45, 4,4′-(5-fluoro-1,3-phenylene)bis(3-cyano-1,2,5-oxadiazole-2-oxide)] has an IC50 of 0.48 µM.

The compounds below were run on freshly perfused S. mansoni worms (assay: ex vivo parasite killing assay). Conditions: not given.
Assay type: cell-based
In the case of `N#Cc1c(-c2cccc(-c3no[n+]([O-])c3C#N)c2)no[n+]1[O-]` [Compound 43, 4,4′-(1,3-phenylene)bis(3-cyano-1,2,5-oxadiazole-2-oxide)], the “worms judged to be dead” value is reported as 100%.
`N#Cc1c(-c2cc(F)cc(-c3no[n+]([O-])c3C#N)c2)no[n+]1[O-]` [Compound 45, 4,4′-(5-fluoro-1,3-phenylene)bis(3-cyano-1,2,5-oxadiazole-2-oxide)] was tested, and the “worms judged to be dead” value was 100%.

Same assay, conditions: compound at 10 μM, RPMI 1640, 10% FCS, pH 7
In the case of `N#Cc1c(-c2ccccc2)no[n+]1[O-]` [Compound 49, reference compound], the “Approximate ET100 (time for 100% of the worms to die)” value is reported as 16 to 18 h.
